pEC50, pIC50: −log10 of the molar value.
Tests used:
[1] = molecular target: T1, Erk2; assay: Cell-free kinase assay Erk2-ALPHA (ALPHA technology); format: biochemical, human; details: 10µM ATP
T1 construct: teils als Volllängenkinasen, teils als verkürzte Fragmente - mindestens aber bestehend aus der funktionellen Kinasedomäne; purchased Upstate 14-173
Source text: (§1) Die inhibitorische Wirkung der erfindungsgemäßen Verbindungen wurde an diversen humanen Serin/ Threonin-, Tyrosin- und Lipidkinasen in enzymatischen Assays getestet. Dabei wurden rekombinante humane Kinasen wie z.B. Erk2, Pl3Kalpha, - beta, -gamma, -delta, p38alpha, p38gamma, Jnk1, Jnk2 und andere eingesetzt, teils als Volllängenkinasen, teils als verkürzte Fragmente - mindestens aber bestehend aus der funktionellen Kinasedomäne. Die käuflichen Kinaseproteine (Proqinase, Upstate) wurden als rekombinante Fusionsproteine mit GST-(Glutathion-S-Transferase) oder His-Tag eingesetzt. Je nach Substrattyp wurden die verschiedenen Kinasereaktionen mittels geeigneter ALPHA™-beads (PerkinElmer) quantifiziert.
(§2) Nachfolgend wird die Substanztestung am Erk-Assay genauer beschrieben. Ausgewählte Testergebnisse der Erk2-, PI3Kalpha-Assays sind unten aufgeführt. […] Anschließend wurde die Kinasereaktion durch Zugabe von 10µl des mit anti-phospho MBP-Antikörpers (320pM, #05-429/ Upstate) präinkubierten ALPHA-Beadmixes (10µg/ml, #6760617/ PerkinElmer) in 25mM Tris, 200mM NaCl, 100mM EDTA und 0.3% BSA abgestoppt und über Nacht stehen gelassen. • b) PI3K-ALPHAs (z.B. PI3Kalpha): Die Testsubstanz, 1ng PI3Kalpha (#14-602, Upstate), 100µM ATP und 20µM PIP2-Substrat (#P4508, Echelon) auf einer 384er Optiplate (PerkinElmer) für 1h in 50mM Hepes, 50mM NaCl, 5mM MgCl2, 0.05% Chaps, 5mM DTT bei pH 7.4 inkubiert. Anschließend wurde die Kinasereaktion durch Zugabe des mit 1nM GST:Grp1-Fusionsprotein (Upstate) und 15nM biotinyliertem PIP3 (#C-39B6/ Echelon) präinkubierten ALPHA-Beadmixes (10µg/ml, #6760603/ PerkinElmer) in 50mM Hepes, 50mM NaCl, 50mM EDTA und 0.1% BSA abgestoppt und über Nacht stehen gelassen.
(§3) Die Fluoreszenzdetektion erfolgte am nächsten Morgen in einem Fusion™alpha-Gerät (PerkinElmer).
(§4) Die Berechnung der %-Inhibitionswerte je Substanz-Konzentration geschah mittels folgender Formel aus den im Fusion™alpha ermittelten Rohdaten: % Kinase Inhibition(Probe) = 100-(100×(MittelwertProbe -Mittelwert0% Kontrolle)/(Mittelwert100% Kontrolle -Mittelwert0% Kontrolle)) [formula]
(§5) Die Kontrollen wurden jeweils 8fach, die Substanzproben jeweils 2fach bestimmt. Die 0%-Kontrolle enthielt entweder kein ATP oder kein Substrat, die 100%-Kontrolle enthielt keine Testsubstanz. Die IC50-Werte wurden mit GraphPadPrism ermittelt.

[2] = molecular target: T2, PI3Kalpha (Homo sapiens, UniProt P42336); assay: Cell-free kinase assay PI3K-ALPHA (ALPHA technology); format: biochemical; details: 100µM ATP
T2 construct: teils als Volllängenkinasen, teils als verkürzte Fragmente - mindestens aber bestehend aus der funktionellen Kinasedomäne; purchased Upstate 14-602
T2 sequence (P42336 whole entry, the tested form may be a part): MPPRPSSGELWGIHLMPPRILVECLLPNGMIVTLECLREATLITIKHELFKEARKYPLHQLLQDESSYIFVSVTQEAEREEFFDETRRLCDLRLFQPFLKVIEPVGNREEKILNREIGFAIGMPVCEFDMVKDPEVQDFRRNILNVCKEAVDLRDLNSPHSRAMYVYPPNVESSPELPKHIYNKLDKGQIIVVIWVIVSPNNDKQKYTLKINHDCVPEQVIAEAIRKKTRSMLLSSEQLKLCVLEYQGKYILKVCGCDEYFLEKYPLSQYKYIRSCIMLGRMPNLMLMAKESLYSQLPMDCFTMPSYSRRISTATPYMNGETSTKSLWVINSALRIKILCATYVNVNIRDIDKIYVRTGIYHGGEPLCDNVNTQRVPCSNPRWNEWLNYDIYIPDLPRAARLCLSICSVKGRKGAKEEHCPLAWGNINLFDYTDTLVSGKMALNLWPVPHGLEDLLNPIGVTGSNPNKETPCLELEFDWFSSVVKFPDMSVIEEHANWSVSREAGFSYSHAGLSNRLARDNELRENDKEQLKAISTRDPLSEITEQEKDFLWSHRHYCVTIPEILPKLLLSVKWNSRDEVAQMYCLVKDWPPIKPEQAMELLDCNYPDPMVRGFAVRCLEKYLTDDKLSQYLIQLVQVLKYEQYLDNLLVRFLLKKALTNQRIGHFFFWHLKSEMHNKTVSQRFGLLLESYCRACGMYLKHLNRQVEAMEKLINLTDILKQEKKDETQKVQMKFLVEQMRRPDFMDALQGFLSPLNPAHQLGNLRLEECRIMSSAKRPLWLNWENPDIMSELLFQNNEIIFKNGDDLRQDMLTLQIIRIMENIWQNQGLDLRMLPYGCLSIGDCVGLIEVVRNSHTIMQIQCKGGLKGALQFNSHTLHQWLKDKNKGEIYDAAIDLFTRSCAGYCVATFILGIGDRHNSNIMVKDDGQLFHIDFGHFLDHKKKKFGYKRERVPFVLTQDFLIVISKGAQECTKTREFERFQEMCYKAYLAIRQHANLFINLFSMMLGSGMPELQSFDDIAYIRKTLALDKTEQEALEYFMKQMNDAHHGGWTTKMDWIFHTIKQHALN
T2 sequence (P27986 whole entry partner, the tested form may be a part): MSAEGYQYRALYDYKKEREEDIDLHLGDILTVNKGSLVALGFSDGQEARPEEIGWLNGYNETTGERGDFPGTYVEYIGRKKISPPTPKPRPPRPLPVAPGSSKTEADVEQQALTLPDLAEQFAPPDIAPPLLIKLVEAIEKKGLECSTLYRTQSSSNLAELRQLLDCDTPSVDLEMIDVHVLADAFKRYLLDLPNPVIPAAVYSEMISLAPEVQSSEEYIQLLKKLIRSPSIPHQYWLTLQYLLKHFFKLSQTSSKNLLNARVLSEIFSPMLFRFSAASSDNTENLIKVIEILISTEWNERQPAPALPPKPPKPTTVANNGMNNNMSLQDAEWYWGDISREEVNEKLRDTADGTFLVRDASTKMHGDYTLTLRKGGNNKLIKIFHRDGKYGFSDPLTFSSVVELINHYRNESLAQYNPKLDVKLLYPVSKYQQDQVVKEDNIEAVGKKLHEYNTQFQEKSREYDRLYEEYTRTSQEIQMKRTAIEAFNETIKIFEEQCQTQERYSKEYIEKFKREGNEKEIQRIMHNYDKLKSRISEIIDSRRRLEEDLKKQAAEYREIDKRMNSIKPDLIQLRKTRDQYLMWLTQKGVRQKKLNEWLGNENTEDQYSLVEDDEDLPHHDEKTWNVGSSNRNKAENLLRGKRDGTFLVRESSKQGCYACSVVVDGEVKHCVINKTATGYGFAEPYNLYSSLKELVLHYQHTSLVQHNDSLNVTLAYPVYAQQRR
Source text: as §1, §2, §3, §4, §5

[3] = test system: BxPC3; assay: Cellular anti-proliferative XTT assay; format: cell-based; details: Homo sapiens, BXPC-3, 45h incubation
Source text: (§6) Das Prinzip dieses Testes beruht auf der intrazellulären Reduktion des Tetrazolium-Farbstoffes XTT (Natrium 3'-[1-(phenylaminocarbonyl)-3,4-tetrazolium]-bis(4-methoxy-6-nitro)benzensulfonsäure, Sigma) zu einem Formazan-Farbstoff durch mitochondriale Dehydrogenasen. Der Farbstoff wird nur von stoffwechselaktiven Zellen gebildet, seine photometrisch messbare Intensität ist ein quantitativer Indikator für das Vorhandensein lebender Zellen. Die Reduzierung der Farbstoffbildung durch Inkubation der Zellen mit Substanzen dient als Parameter für die anti-proliferative Wirkung.
(§7) Die Tumorzelllinien (ATCC) wurden in 96er Mikrotiterplatten in definierter Zellzahl (5000 Zellen/ Well für BxPC3 und Hct116; 10000 Zellen/ Well für MDA MB468) eingesäat und anschließend über Nacht im Brutschrank bei 37°C, 5% CO2 und 95% Luftfeuchtigkeit inkubiert. Die Testsubstanzen wurden als Stammlösungen (10 mM) in DMSO angesetzt. […] Die Zellplatten wurden dann für 45h im Brutschrank bei 37°C, 5% CO2 und 95% Luftfeuchtigkeit inkubiert.
(§8) Für die Detektionssreaktion wurde das Substrat XTT mit PMS (N-Methyl Dibenzopyrazine Methylsulfat, Sigma) versetzt und zu den Zellen gegeben, sodass eine finale Konzentration von 325µg XTT/ml und 2.5µg PMS/ml resultierte. Es wurde dann für 3h bei 37°C, 95% Luftfeuchte inkubiert. Anschließend konnte das durch zelluläre Dehydrogenasen gebildete Formazan Salz bei einer Adsorption bei 490nm quantifiziert werden.
(§9) Die Auswertung der %-Inhibitions-Werte geschah mittels folgender Formel aus den Werten für die jeweils gemessenen optischen Dichten bei 490nm: % Inhibition Zellproliferation(Probe) = 100-(100×(MittelwertProbe -Mittelwert0% Kontrolle)/(Mittelwert100% Kontrolle -Mittelwert0% Kontrolle)) [formula]
(§10) Die Kontrollen wurden jeweils 8fach, die Substanzproben jeweils 2fach bestimmt. Die 0%-Kontrolle enthielt keine Zellen, die 100%-Kontrolle enthielt keine Testsubstanz. Die EC50-Werte wurden mit GraphPadPrism ermittelt.

[4] = test system: MDA-MB468; assay: Cellular anti-proliferative XTT assay; format: cell-based; details: Homo sapiens, MDA-MB-468, 45h incubation
Source text: as §6, §7, §8, §9, §10

[5] = test system: Hct116; assay: Cellular anti-proliferative XTT assay; format: cell-based; details: Homo sapiens, HCT-116, 45h incubation
Source text: as §6, §7, §8, §9, §10

T1 sequence (P63085 2-358 limits assumed): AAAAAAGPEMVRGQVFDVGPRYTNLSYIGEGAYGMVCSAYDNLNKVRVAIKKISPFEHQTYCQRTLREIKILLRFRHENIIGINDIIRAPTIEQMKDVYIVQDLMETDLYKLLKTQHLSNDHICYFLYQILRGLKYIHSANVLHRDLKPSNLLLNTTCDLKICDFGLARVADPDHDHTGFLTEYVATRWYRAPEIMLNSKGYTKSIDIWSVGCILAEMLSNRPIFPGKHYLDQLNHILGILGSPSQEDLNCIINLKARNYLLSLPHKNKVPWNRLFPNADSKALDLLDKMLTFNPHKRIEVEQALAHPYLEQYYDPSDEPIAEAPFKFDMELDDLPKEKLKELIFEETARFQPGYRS

pIC50 [1] | pIC50 [2] | pEC50 [3] | pEC50 [4] | pEC50 [5] | SMILES
6.39 | 4.55 |  |  |  | CONC(=O)Nc1ccc2ncc(-c3ccccc3)nc2n1 [Beispiel 7, 1-Methoxy-3-(3-phenyl-pyrido[2,3-b]pyrazin-6-yl)-harnstoff]
5.39 | 4.57 |  |  |  | C=CCONC(=O)Nc1ccc2ncc(-c3ccccc3)nc2n1 [Beispiel 8, 1-Allyloxy-3-(3-phenyl-pyrido[2,3-b]pyrazin-6-yl)-harnstoff]
 | 4.67 |  |  |  | CCNC(=O)Nc1ccc2ncc(C=CCOC)nc2n1 [Beispiel 6, 1-Ethyl-3-[3-((E)-3-methoxy-propenyl)-pyrido[2,3-b]pyrazin-6-yl]-harnstoff]
6.57 | < 4.50 |  |  |  | CCNC(=O)Nc1ccc2ncc(-c3ccc(OC(=O)Oc4ccccc4)cc3)nc2n1 [Beispiel 11, Kohlensäure-4-[6-(3-ethyl-harnstoff)-pyrido[2,3-b]pyrazin-3-yl]-phenyl-phenyl-ester]
6.93 | 5.11 | 4.70 | 4.82 | 5.00 | CCNC(=O)Nc1ccc2ncc(-c3ccc(OC(=O)OC)cc3)nc2n1 [Beispiel 9, Kohlensäure-4-[6-(3-ethyl-harnstoff)-pyrido[2,3-b]pyrazin-3-yl]-phenyl-methyl-ester]
 | < 4.50 |  |  |  | CCNC(=O)Nc1ccc2ncc(-c3ccc(OC(=O)C=Cc4ccccc4)cc3)nc2n1 [Beispiel 13, (E)-3-Phenyl-acrylsäure-4-[6-(3-ethyl-harnstoff)-pyrido[2,3-b]pyrazin-3-yl]-phenyl-ester]
7.06 | 5.59 | 5.05 | 5.15 | 5.30 | CCNC(=O)Nc1ccc2ncc(-c3ccc(OC(=O)OCCOC)cc3)nc2n1 [Beispiel 10, Kohlensäure-4-[6-(3-ethyl-harnstoff)-pyrido[2,3-b]pyrazin-3-yl]-phenyl-(2-methoxy-ethyl)-ester]
5.24 | 4.77 |  |  |  | CCNC(=O)Nc1ccc2ncc(C#CC3CC3)nc2n1 [Beispiel 3, 1-(3-Cyclopropylethynyl-pyrido[2,3-b]pyrazin-6-yl)-3-ethyl-harnstoff]

SMILES | pIC50 [1] | pIC50 [2] | pEC50 [3] | pEC50 [4] | pEC50 [5]
CCNC(=O)Nc1ccc2ncc(-c3ccc(OC(=O)N(CC)CC)cc3)nc2n1 [Beispiel 12, Diethyl-carbaminsäure-4-[6-(3-ethyl-harnstoff)-pyrido[2,3-b]pyrazin-3-yl]-phenyl-ester] | 5.55 | 5.47 |  |  | 

— patent publication EP1785423A1, “Pyridopyrazine derivatives and their use as kinase modulators” (Zentaris GmbH, priority 2005, dated 2007)
